# According to ChEMBL document CHEMBL4038287, “Design, synthesis, and in vitro evaluation of novel antifungal triazoles” (2017):
# How the values were obtained:
# Type in all cases: functional
# [1] = system: Candida albicans; experiment: Antifungal activity against Candida albicans isolate SC5314 by micro-broth dilution method
# [2] = system: Candida parapsilosis; experiment: Antifungal activity against Candida parapsilosis isolate 22019 by micro-broth dilution method; conditions: Lodderomyces parapsilosis
# [3] = system: Nakaseomyces glabratus; experiment: Antifungal activity against Candida glabrata isolate 537 by micro-broth dilution method
# [4] = system: Trichophyton rubrum; experiment: Antifungal activity against Trichophyton rubrum isolate cmccftla by micro-broth dilution method
# [5] = system: Aspergillus fumigatus; experiment: Antifungal activity against Aspergillus fumigatus isolate 7544 by micro-broth dilution method
# [6] = system: Nannizzia gypsea; experiment: Antifungal activity against Microsporum gypseum isolate cmccftla by micro-broth dilution method
# [7] = system: Cryptococcus neoformans; experiment: Antifungal activity against Cryptococcus neoformans isolate 32605 by micro-broth dilution method
# [8] = system: Candida albicans; experiment: Antifungal activity against Candida albicans isolate Y0109 by micro-broth dilution method
SMILES,MIC80 [1],MIC80 [2],MIC80 [3],MIC80 [4],MIC80 [5],MIC80 [6],MIC80 [7],MIC80 [8]
C[C@@H](c1cc(-c2ccc(S(C)(=O)=O)cc2)no1)[C@](O)(Cn1cncn1)c1ccc(F)cc1F,0.125 µg/mL,0.125 µg/mL,0.25 µg/mL,1 µg/mL,8 µg/mL,4 µg/mL,0.25 µg/mL,0.125 µg/mL
C[C@@H](c1cc(-c2ccc(Cl)cc2F)no1)[C@](O)(Cn1cncn1)c1ccc(F)cc1F,0.125 µg/mL,0.125 µg/mL,0.0156 µg/mL,0.25 µg/mL,8 µg/mL,2 µg/mL,0.0313 µg/mL,0.125 µg/mL
C[C@@H](c1cc(-c2ccc(F)c(F)c2)no1)[C@](O)(Cn1cncn1)c1ccc(F)cc1F,0.125 µg/mL,0.125 µg/mL,0.0156 µg/mL,0.5 µg/mL,8 µg/mL,4 µg/mL,0.125 µg/mL,0.125 µg/mL
C[C@@H](c1cc(-c2c(F)ccc(F)c2F)no1)[C@](O)(Cn1cncn1)c1ccc(F)cc1F,0.25 µg/mL,0.125 µg/mL,0.0625 µg/mL,0.0625 µg/mL,2 µg/mL,0.5 µg/mL,0.0625 µg/mL,0.125 µg/mL
C[C@@H](c1cc(-c2ccc([N+](=O)[O-])cc2)no1)[C@](O)(Cn1cncn1)c1ccc(F)cc1F,0.125 µg/mL,0.5 µg/mL,0.5 µg/mL,1 µg/mL,> 8 µg/mL,2 µg/mL,0.125 µg/mL,0.125 µg/mL
C[C@@H](c1cc(-c2ccc(F)cc2)no1)[C@](O)(Cn1cncn1)c1ccc(F)cc1F,0.25 µg/mL,0.0625 µg/mL,0.0313 µg/mL,0.0625 µg/mL,2 µg/mL,0.5 µg/mL,0.125 µg/mL,0.125 µg/mL
C[C@@H](c1cc(-c2ccc(Cl)c(F)c2)no1)[C@](O)(Cn1cncn1)c1ccc(F)cc1F,0.0313 µg/mL,0.5 µg/mL,0.25 µg/mL,0.5 µg/mL,> 8 µg/mL,4 µg/mL,0.25 µg/mL,0.0156 µg/mL
C[C@@H](c1cc(-c2cc(F)cc(F)c2)no1)[C@](O)(Cn1cncn1)c1ccc(F)cc1F,0.125 µg/mL,0.25 µg/mL,0.0625 µg/mL,0.25 µg/mL,4 µg/mL,2 µg/mL,0.125 µg/mL,0.0625 µg/mL
C[C@@H](c1cc(-c2ccc(C#N)cc2)no1)[C@](O)(Cn1cncn1)c1ccc(F)cc1F,0.25 µg/mL,0.125 µg/mL,0.0625 µg/mL,0.125 µg/mL,8 µg/mL,1 µg/mL,0.125 µg/mL,0.25 µg/mL
C[C@@H](c1cc(-c2ccc(OC(F)F)cc2)no1)[C@](O)(Cn1cncn1)c1ccc(F)cc1F,0.0625 µg/mL,0.125 µg/mL,0.0625 µg/mL,0.125 µg/mL,8 µg/mL,1 µg/mL,0.125 µg/mL,0.0625 µg/mL

# The remaining lines, values ahead:
MIC80 [1],MIC80 [2],MIC80 [3],MIC80 [4],MIC80 [5],MIC80 [6],MIC80 [7],MIC80 [8],SMILES
0.5 µg/mL,1 µg/mL,0.0625 µg/mL,2 µg/mL,> 8 µg/mL,> 8 µg/mL,0.0625 µg/mL,0.5 µg/mL,C[C@@H](c1cc(-c2ccccc2F)no1)[C@](O)(Cn1cncn1)c1cc(F)ccc1F
1 µg/mL,1 µg/mL,0.125 µg/mL,8 µg/mL,> 8 µg/mL,> 8 µg/mL,0.125 µg/mL,0.5 µg/mL,C[C@@H](c1cc(-c2cc(F)ccc2F)no1)[C@](O)(Cn1cncn1)c1cc(F)ccc1F
0.5 µg/mL,2 µg/mL,0.125 µg/mL,8 µg/mL,> 8 µg/mL,> 8 µg/mL,0.125 µg/mL,0.5 µg/mL,C[C@@H](c1cc(-c2cccc(F)c2F)no1)[C@](O)(Cn1cncn1)c1cc(F)ccc1F
0.0625 µg/mL,0.125 µg/mL,0.0625 µg/mL,0.125 µg/mL,4 µg/mL,1 µg/mL,0.125 µg/mL,0.0625 µg/mL,C[C@@H](c1cc(-c2cc(F)ccc2F)no1)[C@](O)(Cn1cncn1)c1ccc(F)cc1F
0.125 µg/mL,0.25 µg/mL,0.0156 µg/mL,1 µg/mL,> 8 µg/mL,> 8 µg/mL,0.125 µg/mL,0.125 µg/mL,C[C@@H](c1cc(-c2ccc(F)c(F)c2)no1)[C@](O)(Cn1cncn1)c1cc(F)ccc1F
0.0625 µg/mL,0.25 µg/mL,0.125 µg/mL,0.125 µg/mL,2 µg/mL,0.5 µg/mL,0.125 µg/mL,0.0625 µg/mL,C[C@@H](c1cc(-c2cccc(F)c2F)no1)[C@](O)(Cn1cncn1)c1ccc(F)cc1F
